“Also recorded” adds a separate entry of the source. Where a SMILES comes first, the peptide text is derived from it. Bridges are numbered along the chain shown (N, C = ends). [ ]: non-standard residue; d: D form. hArg = N=C(N)NCCCC[C@H](N)C(=O)O; Mpa = O=C(O)CCS
What was measured:
human platelets [1] = test: Platelet aggregation assay ex vivo (ADP-induced, lumi-aggregometer); type: cell-based; settings: ADP 20 μM; for inhibition of platelet aggregation at 90 μM: peptide 90 μM
Protocol: Peripheral human blood was collected as described above. Platelet-rich plasma (PRP) was obtained from the collected peripheral blood by centrifugation at 135 g for 15 min. Subsequent centrifugation at 1,500 g for 15 min yielded platelet-poor plasma (PPP). By mixing PRP and PPP, conditioned plasma of 300,000-350,000 platelets per 1 μl of plasma was prepared. […] The platelet aggregation assay was done as described previously (Klinkhardt, U., Kirchmaier, C. M., Westrup, D., Breddin, H. K., Mahnel, R., Graff, J., Hild, M., and Harder, S. (2000) Differential in vitro effects of the platelet glycoprotein IIb/IIIa inhibitors abxicimab or SR121566A on platelet aggregation, fibrinogen binding and platelet secretory parameters. Thromb Res 97, 201-207) using a whole blood lumi-aggregometer (Chrono-log, Havertown, Pa.). The impedance of each sample was monitored until a stable baseline was established (<5 mV drift per minute). To induce platelet aggregation, 9 μl of an ADP solution was added to reach a final concentration of 20 μM. Increase in impedance across a pair of electrodes over time was transmitted through an interface to a personal computer for analysis (AGGRO/LINK, Chrono-log).

[2] = biological target: T1, interaction of human fibrinogen and human integrin αIIbβ3 (Homo sapiens, UniProt P05106+P08514); test: Fibrinogen binding inhibition assay (competitive ELISA)
T1 construct: purchased Enzyme Research Laboratories (South Bend, Ind.)
Protocol: Wells of a Costar 3690 96-well plate were coated with 100 ng of integrin αIIbβ3 in 50 μl metal buffer at 4° C. overnight. The plate was washed twice with water and blocked with 160 μl of 3% (w/v) skim milk in TBS for 1 h at 37° C. […] The final concentrations were adjusted between 1.3×10^−8 M and 8.0×10^−7 M of Fabs and between 8.9×10^−8 M and 9.1×10^−5 M of synthetic peptides. After incubation for 2 h at 37° C. followed by ten times washing with water and five times washing with 0.05% Tween20 in TBS, 50 μl of 0.5 μg/ml streptavidine-HRP (Pierce) diluted in 3% (w/v) skim milk in TBS was added and incubated for 1 h at 37° C. After washing as above, 50 μl of ABTS substrate solution (Barbas, C. F., 3rd, Burton, D. R., Scott, J. K., and Silverman, G. J. (2001) Phage Display: A Laboratory Manual, Cold Spring Harbor Laboratory Press, Cold Spring Harbor, N.Y.) was added. This experiment was repeated three times at each concentration to get the mean value and standard deviation.

integrin αIIbβ3 = integrin αIIbβ3 (Homo sapiens, UniProt P05106+P08514); test: Inhibition of binding of selected RAD antibodies to integrin by peptides
[3] = human, in vivo; cited from earlier work
[4] = system: integrins αIIbβ3, αvβ3 and αMβ2; settings: cited from earlier work
human platelets [5] = test: Flow cytometry, Fab binding to cells; type: cell-based; settings: Fab 0.2 μM, peripheral blood
Protocol: (§1) Peripheral blood was drawn from a healthy volunteer and collected in an ACD tube (Becton Dickinson, San Jose, Calif.). HUVEC were treated for 5 min with 0.05% (w/v) trypsin, 0.53 mM EDTA (Life Technologies), collected by centrifugation at 500 g for […], and resuspended in 1% (w/v) BSA in PBS (phosphate buffered saline). […] After incubation for 40 min at room temperature followed by washing twice with 1% (w/v) BSA in PBS, 10 μl of FITC conjugated anti-human IgG polyclonal antibodies (Sigma-Aldrich) diluted in 750 μl of 1% (w/v) BSA in PBS was added and incubated for 20 min at room temperature. After washing twice with 1% (w/v) BSA in PBS, flow cytometry was performed using a FACStar instrument from Becton Dickinson (San Jose, Calif.).

platelets = settings: aggregation induced at 5 μM ADP; read-out: previously reported EC50 of platelet aggregation inhibition; cited from earlier work
HUVEC cells = test: Flow cytometry, Fab binding to cells; type: cell-based, human; settings: Fab 0.2 μM; HUVEC mainly express integrin αvβ3
Protocol: as §1

| inhibition of the binding of the selected RAD antibodies to integrin αIIbβ3 (integrin αIIbβ3) | Compound | inhibition of platelet aggregation ex vivo (in words) (human platelets [1]) | inhibition of platelet aggregation at 90 μM (human platelets [1]) | inhibition of the interaction between integrin αIIbβ3 and fibrinogen (in words) [2] | reported integrin specificity / cross-reactivity [4] | further results |
| --- | --- | --- | --- | --- | --- | --- |
| inhibited | CC(C)[C@H](N)C(=O)N[C@H](C(=O)N[C@H]1CSSC[C@@H](C(=O)O)NC(=O)[C@H](CCCNC(=N)N)NC(=O)[C@H](CCCNC(=N)N)NC(=O)[C@H](CC(=O)O)NC(=O)[C@H](C)NC(=O)[C@H](CCCNC(=N)N)NC1=O)C(C)C (H-VVCRADRRC-OH; disulfide 3-9; N-terminus and C-terminus assumed) | inhibited; also recorded: strongly inhibited | completely inhibited | inhibited; also recorded: strongly inhibited | – | – |
| inhibited | CC(C)[C@H](N)C(=O)N[C@@H](Cc1c[nH]c2ccccc12)C(=O)N[C@H]1CSSC[C@@H](C(=O)O)NC(=O)[C@H](CCCNC(=N)N)NC(=O)[C@H](CCCCN)NC(=O)[C@H](CC(=O)O)NC(=O)[C@H](C)NC(=O)[C@H](CCCNC(=N)N)NC1=O (H-VWCRADKRC-OH; disulfide 3-9; N-terminus and C-terminus assumed) | inhibited; also recorded: strongly inhibited | completely inhibited | inhibited; also recorded: strongly inhibited | – | – |
| inhibited | CC(C)[C@H](N)C(=O)N[C@@H](Cc1c[nH]c2ccccc12)C(=O)N[C@H]1CSSC[C@@H](C(=O)O)NC(=O)[C@H](CCCNC(=N)N)NC(=O)[C@H](CCCNC(=N)N)NC(=O)[C@H](CC(=O)O)NC(=O)[C@H](C)NC(=O)[C@H](CCCNC(=N)N)NC1=O (H-VWCRADRRC-OH; disulfide 3-9; N-terminus and C-terminus assumed) | inhibited; also recorded: strongly inhibited | completely inhibited | inhibited; also recorded: strongly inhibited | – | inhibition of platelet aggregation at 9 μM (human platelets [1]; peptide 9 μM): the only peptide to inhibit platelet aggregation |
| – | N=C(N)NCCCC[C@@H]1NC(=O)CCSSC[C@@H](C(N)=O)NC(=O)[C@@H]2CCCN2C(=O)[C@H](Cc2c[nH]c3ccccc23)NC(=O)[C@H](CC(=O)O)NC(=O)CNC1=O [eptifibatide] ([Mpa][hArg]GDWPC-NH2; disulfide 1-7) | – | – | – | αIIbβ3-specific | incidence of thrombocytopenia versus placebo [3]: approximately the same |
| – | CCCCS(=O)(=O)N[C@@H](Cc1ccc(OCCCCC2CCNCC2)cc1)C(=O)O [tirofiban] | – | – | – | αIIbβ3-specific | – |
| – | Abciximab: chimeric Fab with mouse variable and human constant domains, integrin αIIbβ3 inhibitor | – | – | – | cross-react with integrin αvβ3 and αMβ2 | binding to human platelets (flow cytometry) (human platelets [5]): bound to both platelets and HUVEC cells; occurrence of thrombocytopenia after the second administration [3]: 4%; EC50 (platelets): 34 nM; EC50 (human platelets [1]; conditioned plasma, read-out: EC50, required concentration for 50% inhibition in a human platelet aggregation assay): 45 nM; binding to HUVEC cells (flow cytometry) (HUVEC cells): bound to both platelets and HUVEC cells |
| – | THSDARRRE (inversed RAD motif peptide) [control peptide with an inversed RAD motif, reference compound] | – | – | did not inhibit | – | – |
| – | THSRADRRE (listed as Homo sapiens) [linear nonapeptide derived from HCDR3 of clone RAD1] | not | – | did not inhibit and not | – | – |
| – | VVCDARRRC (inversed RAD motif peptide) [control peptide with an inversed RAD motif, reference compound] | – | – | did not inhibit | – | – |

Source: patent US8586033B2, “Integrin αIIbβ3 specific antibodies and peptides” (The Scripps Research Institute, priority 2003, dated 2013)
